The source of these data is ChEMBL document CHEMBL3425423, “Hydroxy tricyclic 1,5-naphthyridinone oxabicyclooctane-linked novel bacterial topoisomerase inhibitors as broad-spectrum antibacterial agents-SAR of RHS moiety (Part-3)” (Bioorg Med Chem Lett, 2015).

In general, IC50 refers to the concentration that gives 50% inhibition. Read a high IC50 as weaker potency in that assay.

In one assay the test system is Enterococcus faecalis. Nature of the assay: Antibacterial activity against Enterococcus faecalis ATCC 29212. In kind it is functional.
A further assay has as its system Haemophilus influenzae. The assay is described as follows: Antibacterial activity against Haemophilus influenzae ATCC 49247. In kind it is functional.
Assay [1] deals with Staphylococcus aureus. The assay is described as follows: Antibacterial activity against Staphylococcus aureus Smith. In kind it is functional. To be noted: Staphylococcus aureus, Smith; read-out: MIC.
The test system of another assay is Streptococcus pneumoniae. Nature of the assay: Antibacterial activity against Streptococcus pneumoniae IID554. In kind it is functional. The following applies: Streptococcus pneumoniae, IID554; read-out: MIC.
For the next assay, the system named is Moraxella catarrhalis. Nature of the assay: Antibacterial activity against Moraxella catarrhalis ATCC 25238. In kind it is functional.
The next assay concerns Escherichia coli. The assay is described as follows: Antibacterial activity against Escherichia coli ATCC 25922. In kind it is functional.
Another assay deals with Enterococcus faecium. Nature of the assay: Antibacterial activity against VanA-type vancomycin-resistant Enterococcus faecium A2373. In kind it is functional.
A further assay has as its system Acinetobacter baumannii. The assay is described as follows: Antibacterial activity against Acinetobacter baumannii IID876. In kind it is functional.
For another assay, the system named is Pseudomonas aeruginosa. The assay is described as follows: Antibacterial activity against Pseudomonas aeruginosa PAO1. In kind it is functional.
Assay [2] concerns Staphylococcus aureus. Nature of the assay: Ratio of MIC for quinolone-resistant Staphylococcus aureus MS5935 to MIC for quinolone-sensitive Staphylococcus aureus. In kind it is functional.
The target in assay [3] is T1, Voltage-gated inwardly rectifying potassium channel KCNH2 (Homo sapiens, UniProt Q12809). Nature of the assay: Inhibition of human ERG expressed in CHO cells measured over 5 mins by patch clamp assay. Background: The patch-clamp technique gives a direct electrical read-out from membranes.
The target in assay [4] is T1, Voltage-gated inwardly rectifying potassium channel KCNH2. Nature of the assay: Displacement of MK499 from human ERG.
The mark [5] stands for this setting: Enterococcus faecalis, ATCC 29212, read-out: MIC.
Setting [6] is: Haemophilus influenzae, ATCC 49247, read-out: MIC.
Where [7] appears, read: Moraxella catarrhalis, ATCC 25238, read-out: MIC.
Where [8] appears, read: Escherichia coli, ATCC 25922, read-out: MIC.
Setting [9] is: Enterococcus faecium, A2373, read-out: MIC.
The mark [10] stands for this setting: Acinetobacter baumannii, IID876, read-out: MIC.
Setting [11] is: Pseudomonas aeruginosa, PAO1, read-out: MIC.

Converted amounts (≈) assume the structure as drawn.

T1 sequence (Q12809 whole entry): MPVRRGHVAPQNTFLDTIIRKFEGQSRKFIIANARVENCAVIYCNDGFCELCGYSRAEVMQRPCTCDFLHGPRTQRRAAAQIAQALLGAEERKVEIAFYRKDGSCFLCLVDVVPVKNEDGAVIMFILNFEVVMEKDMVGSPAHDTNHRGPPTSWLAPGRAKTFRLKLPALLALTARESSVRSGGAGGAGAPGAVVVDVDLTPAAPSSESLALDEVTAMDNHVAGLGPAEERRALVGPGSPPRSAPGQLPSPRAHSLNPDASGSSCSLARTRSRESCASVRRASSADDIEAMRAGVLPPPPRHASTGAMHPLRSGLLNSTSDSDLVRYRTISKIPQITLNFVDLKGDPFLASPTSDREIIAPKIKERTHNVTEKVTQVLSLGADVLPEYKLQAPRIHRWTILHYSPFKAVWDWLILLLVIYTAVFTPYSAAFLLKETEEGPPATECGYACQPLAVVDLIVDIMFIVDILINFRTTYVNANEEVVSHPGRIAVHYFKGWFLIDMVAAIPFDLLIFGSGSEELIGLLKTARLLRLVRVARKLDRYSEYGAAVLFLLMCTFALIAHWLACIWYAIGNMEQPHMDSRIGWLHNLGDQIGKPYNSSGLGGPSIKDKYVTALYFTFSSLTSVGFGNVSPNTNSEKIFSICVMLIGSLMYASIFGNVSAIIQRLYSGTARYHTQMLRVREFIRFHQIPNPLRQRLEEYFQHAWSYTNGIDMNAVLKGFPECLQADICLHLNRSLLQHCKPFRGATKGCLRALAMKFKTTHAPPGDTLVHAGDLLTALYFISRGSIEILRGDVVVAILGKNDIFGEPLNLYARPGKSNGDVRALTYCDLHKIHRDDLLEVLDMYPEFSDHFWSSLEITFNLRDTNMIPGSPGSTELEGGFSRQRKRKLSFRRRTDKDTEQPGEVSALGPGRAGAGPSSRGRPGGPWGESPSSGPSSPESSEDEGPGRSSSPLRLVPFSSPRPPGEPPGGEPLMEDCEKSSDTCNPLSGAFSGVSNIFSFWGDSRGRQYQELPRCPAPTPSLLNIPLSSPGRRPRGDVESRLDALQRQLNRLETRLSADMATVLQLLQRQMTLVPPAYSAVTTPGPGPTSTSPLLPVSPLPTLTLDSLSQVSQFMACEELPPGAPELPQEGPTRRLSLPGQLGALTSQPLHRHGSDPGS

Turning to `O=c1ccc2ncc(F)c3c2n1C[C@@]3(O)CC12CCC(NCc3ccc4c(n3)OCCN4)(CC1)CO2`, the MIC in the assay on Enterococcus faecalis (setting [5]) stood at 32 µg/mL (≈ 64.8 µM); in the assay with Haemophilus influenzae (setting [6]) it was 32 µg/mL (≈ 64.8 µM); with Staphylococcus aureus [1], 8 µg/mL (≈ 16.2 µM); in the assay on Streptococcus pneumoniae, 8 µg/mL (≈ 16.2 µM); in the assay with Moraxella catarrhalis (setting [7]) it was 32 µg/mL (≈ 64.8 µM); with Escherichia coli (setting [8]), 32 µg/mL (≈ 64.8 µM). For the same compound, the MIC with Enterococcus faecium (setting [9]), in the assay on Acinetobacter baumannii (setting [10]) and with Pseudomonas aeruginosa (setting [11]) was 32 µg/mL (≈ 64.8 µM) each time. Also, the Ratio with Staphylococcus aureus [2] was under 4.

In the case of `O=C1COc2cc(OC(=O)c3ccccc3)c(CNC34CCC(C[C@]5(O)Cn6c(=O)ccc7ncc(F)c5c76)(CC3)OC4)nc2N1`, half-maximal inhibition in assay [3] (IC50) was put at 30.5 µM. The MIC was determined as 32 µg/mL (≈ 51 µM) in the assay on Enterococcus faecalis (setting [5]); 32 µg/mL (≈ 51 µM) in the assay with Haemophilus influenzae (setting [6]); 8 µg/mL (≈ 12.7 µM) in the assay on Staphylococcus aureus [1]; 32 µg/mL (≈ 51 µM) with Streptococcus pneumoniae; 32 µg/mL (≈ 51 µM) in the assay with Moraxella catarrhalis (setting [7]); 32 µg/mL (≈ 51 µM) in the assay with Escherichia coli (setting [8]). Besides, the MIC with Enterococcus faecium (setting [9]), in the assay with Acinetobacter baumannii (setting [10]) and in the assay on Pseudomonas aeruginosa (setting [11]) was 32 µg/mL (≈ 51 µM) each time. Moreover, in the assay with Staphylococcus aureus [2], the Ratio is recorded as under 4.

On to `CN1CCOc2ccc(CNC34CCC(C[C@]5(O)Cn6c(=O)ccc7ncc(F)c5c76)(CC3)OC4)nc21`, for which the IC50 in assay [3] and in [4] was over 60 µM throughout. Moreover, the MIC turned out to be 32 µg/mL (≈ 63 µM) in the assay with Enterococcus faecalis (setting [5]); 4 µg/mL (≈ 7.88 µM) in the assay on Staphylococcus aureus [1]; 8 µg/mL (≈ 15.8 µM) with Streptococcus pneumoniae; 32 µg/mL (≈ 63 µM) with Escherichia coli (setting [8]); 32 µg/mL (≈ 63 µM) in the assay on Enterococcus faecium (setting [9]); 32 µg/mL (≈ 63 µM) in the assay on Acinetobacter baumannii (setting [10]). Further, the MIC with Pseudomonas aeruginosa (setting [11]) was 32 µg/mL (≈ 63 µM). The Ratio with Staphylococcus aureus [2] is under 4.

Take `CCc1cc2c(nc1CNC13CCC(C[C@]4(O)Cn5c(=O)ccc6ncc(F)c4c65)(CC1)OC3)NC(=O)CO2`: the concentration for half-maximal inhibition (IC50) in assay [3] and in [4] was over 60 µM each time. Moreover, the MIC in the assay on Enterococcus faecalis (setting [5]) was determined as 32 µg/mL (≈ 59.7 µM); in the assay on Haemophilus influenzae (setting [6]), 16 µg/mL (≈ 29.9 µM); with Staphylococcus aureus [1], 8 µg/mL (≈ 14.9 µM); with Streptococcus pneumoniae it was 32 µg/mL (≈ 59.7 µM); in the assay on Moraxella catarrhalis (setting [7]), 1 µg/mL (≈ 1.87 µM); in the assay with Escherichia coli (setting [8]), 16 µg/mL (≈ 29.9 µM). Besides, the values for the MIC in the assay on Enterococcus faecium (setting [9]), in the assay with Acinetobacter baumannii (setting [10]) and in the assay on Pseudomonas aeruginosa (setting [11]) were 32 µg/mL (≈ 59.7 µM), 1 µg/mL (≈ 1.87 µM) and 32 µg/mL (≈ 59.7 µM), respectively. Also, in the assay with Staphylococcus aureus [2], the Ratio is on record as under 4.

On to `O=c1ccc2ncc(F)c3c2n1C[C@@]3(O)CC12CCC(NCc3cc4c(cn3)OCCS4(=O)=O)(CC1)CO2`, for which the 50% inhibitory concentration (IC50) in [3] and in assay [4] was over 60 µM throughout. Also, the MIC in the assay with Enterococcus faecalis (setting [5]) is 32 µg/mL (≈ 59 µM); in the assay on Haemophilus influenzae (setting [6]), 32 µg/mL (≈ 59 µM); in the assay on Staphylococcus aureus [1] it was 8 µg/mL (≈ 14.7 µM); with Streptococcus pneumoniae, 4 µg/mL (≈ 7.37 µM); in the assay on Moraxella catarrhalis (setting [7]), 32 µg/mL (≈ 59 µM); with Escherichia coli (setting [8]), 32 µg/mL (≈ 59 µM). In addition, the MIC with Enterococcus faecium (setting [9]), with Acinetobacter baumannii (setting [10]) and in the assay with Pseudomonas aeruginosa (setting [11]) was 32 µg/mL (≈ 59 µM) each time. Also, the Ratio in the assay with Staphylococcus aureus [2] is under 4.

Turning to `CC1COc2cnc(CNC34CCC(C[C@]5(O)Cn6c(=O)ccc7ncc(F)c5c76)(CC3)OC4)cc2O1` (stereo in doubt; 22), the MIC is 32 µg/mL (≈ 62.9 µM) against Enterococcus faecalis; 32 µg/mL (≈ 62.9 µM) in the assay with Haemophilus influenzae; 4 µg/mL (≈ 7.87 µM) with Staphylococcus aureus [1]; 4 µg/mL (≈ 7.87 µM) in the assay on Streptococcus pneumoniae; 32 µg/mL (≈ 62.9 µM) against Moraxella catarrhalis; 32 µg/mL (≈ 62.9 µM) against Escherichia coli. The MIC in the assay with Enterococcus faecium, with Acinetobacter baumannii and against Pseudomonas aeruginosa was 32 µg/mL (≈ 62.9 µM) throughout.

`O=c1ccc2ncc(F)c3c2n1C[C@@]3(O)CC12CCC(NCc3cc4c(cn3)SCCO4)(CC1)CO2`: the MIC was 2 µg/mL (≈ 3.92 µM) with Enterococcus faecalis (setting [5]); 8 µg/mL (≈ 15.7 µM) in the assay on Haemophilus influenzae (setting [6]); 0.12 µg/mL (≈ 0.235 µM) with Staphylococcus aureus [1]; 0.25 µg/mL (≈ 0.49 µM) in the assay with Streptococcus pneumoniae; 0.5 µg/mL (≈ 0.979 µM) in the assay with Moraxella catarrhalis (setting [7]); 16 µg/mL (≈ 31.3 µM) in the assay with Escherichia coli (setting [8]). For the same compound, the MIC in the assay with Enterococcus faecium (setting [9]) amounted to 4 µg/mL (≈ 7.83 µM); in the assay on Acinetobacter baumannii (setting [10]) it was 2 µg/mL (≈ 3.92 µM); in the assay with Pseudomonas aeruginosa (setting [11]), 32 µg/mL (≈ 62.7 µM).

For `O=c1ccc2ncc(F)c3c2n1C[C@@]3(O)CC12CCC(NCc3cc4c(nn3)OCCO4)(CC1)CO2`, the MIC was 8 µg/mL (≈ 16.1 µM) in the assay on Enterococcus faecalis (setting [5]); 32 µg/mL (≈ 64.6 µM) with Haemophilus influenzae (setting [6]); 4 µg/mL (≈ 8.07 µM) in the assay with Staphylococcus aureus [1]; 2 µg/mL (≈ 4.04 µM) with Streptococcus pneumoniae; 32 µg/mL (≈ 64.6 µM) in the assay on Moraxella catarrhalis (setting [7]); 32 µg/mL (≈ 64.6 µM) in the assay with Escherichia coli (setting [8]). The MIC with Enterococcus faecium (setting [9]), in the assay with Acinetobacter baumannii (setting [10]) and in the assay on Pseudomonas aeruginosa (setting [11]) was 32 µg/mL (≈ 64.6 µM) in each case.
